Experimental data from patent US7674819B2 (Warner-Lambert Company LLC, priority 2005, dated 2010).
Where two headings read alike, the source gives them in different places.

Key:
[1] = tested on: male Syrian hamsters; experiment: Animal Model for Inhibition of Sebum Production (hamster ear, HPLC of sebum lipids); assay type: in vivo, Syrian hamster; conditions: twice daily, five days a week, 4 weeks; for % CE reduction: cholesterol ester vs vehicle control; for % WE reduction: wax ester vs vehicle control
Protocol: Luderschmidt et al describes an animal model for testing whether compounds are capable of modulating sebum secretion. Arch. Derm. Res. 258, 185-191 (1977). This model uses male Syrian hamsters, whose ears contain sebaceous glands. Based on binding data and cellular assay data, selected compounds were chosen for screening in this model. Those compounds included the products of Examples 1, 20, 81, 82, and 109.
Testing for sebum inhibition was carried out in the following manner. Male Syrian hamsters aged 9 to 10 weeks were introduced into the laboratory environment and acclimated for 2 weeks prior to use in the study. Each group consisted of 5 animals and run in parallel with vehicle and positive controls. Prior to administration, a sufficient quantity each compound was dissolved in 1 mL of a solvent consisting of ethanol, transcutol, and propylene glycol (60/20/20% v/v/v) to achieve the final concentration specified in Table VIII below.
Animals were dosed topically twice daily, five days a week, for 4 weeks. Each dose consisted of 25 micro liters of vehicle control or drug. The dose was applied to the ventral surfaces of both the right and left ears. All animals were sacrificed approximately 18-24 hours after the final dose. The right ears were collected from each animal and used for sebum analysis.
The ears were prepped for HPLC analysis in the following manner. One 8 mm distal biopsy punch was taken, just above the anatomical “V” mark in the ear to normalize the sample area. The punch was pulled apart. The ventral biopsy surface (the area where the topical dose was directly applied to the sebaceous glands) was retained for testing and the dorsal surface of the biopsy punch was discarded.
Tissue samples were blown with N2 gas and stored at −80° C. under nitrogen until HPLC analysis. In addition to ear samples, an aliquot of each drug and vehicle (at least 250 ul) was also stored at −80° C. for inclusion in the HPLC analysis.
HPLC analysis was carried out on an extract of the tissue sample. Tissue samples were contacted with 3 ml of solvent (a 4:1 admixture of 2,2,4-trimethylpentane and isopropyl alcohol). The mixture was shaken for 15 minutes and stored overnight at room temperature, protected from light. The next morning 1 milliliter of water was added to the sample and shaken for 15 minutes. The sample was then centrifuged at approximately 1500 rpm for 15 minutes. Two ml of the organic phase (top layer) was transferred to a glass vial, dried at 37° C., under nitrogen, for approximately 1 hour, and then lyophilized for approximately 48 hours. The samples were then removed from the lyophilizer and each vial was reconstituted with 600 μl of solvent A (trimethylpentane/tetrahydrofuran (99:1). The samples were then recapped and vortexed for 5 minutes.
200 μl of each sample was then transferred to a pre-labeled 200 μl HPLC vial with 200 μL glass inserts. The HPLC vials were placed in the autosampler tray for the Agilent 1100 series HPLC unit. The Agilent 1100 HPLC system consisted of a thermostated autosampler, a quaternary pump, a column heater, and an A/D interface module. All components were controlled by Agilent ChemStation software. A Waters Spherisorb S3W 4.6×100 mm analytical column was maintained at 30° C. by the Agilent column heater unit.
The HPLC autosampler was programmed to maintain the sample temperature at 20 C throughout the run.
10 uL of each sample was injected in triplicate into the column. Two solvents were used for the solvent gradient. Solvent A was an admixture of trimethylpentane and tetrahydrofuran (99:1). Solvent B was ethylacetate. The gradient utilized is described in the table below: […]
The Sedex 75 Evaporative Light Scattering Detector (ELSD) was operated at 45° C. with a gain of 5, and N2 pressure maintained at 3.1 bar. Analog signal obtained by the instrument was sent to the Agilent A/D interface module where it was converted to a digital output. […]

[2] = target: T1, androgen receptor (Homo sapiens, UniProt P10275); experiment: AR Antagonist Cell Assay (MDA-MB453-MMTV clone 54-19, luciferase reporter); assay type: cell-based; conditions: inhibition of induction by DHT (final concentration at 100 μM), 17 hr, compound 0.32-1000 nM, mean of multiple tests
T1 sequence (P10275 1-920 Q868H): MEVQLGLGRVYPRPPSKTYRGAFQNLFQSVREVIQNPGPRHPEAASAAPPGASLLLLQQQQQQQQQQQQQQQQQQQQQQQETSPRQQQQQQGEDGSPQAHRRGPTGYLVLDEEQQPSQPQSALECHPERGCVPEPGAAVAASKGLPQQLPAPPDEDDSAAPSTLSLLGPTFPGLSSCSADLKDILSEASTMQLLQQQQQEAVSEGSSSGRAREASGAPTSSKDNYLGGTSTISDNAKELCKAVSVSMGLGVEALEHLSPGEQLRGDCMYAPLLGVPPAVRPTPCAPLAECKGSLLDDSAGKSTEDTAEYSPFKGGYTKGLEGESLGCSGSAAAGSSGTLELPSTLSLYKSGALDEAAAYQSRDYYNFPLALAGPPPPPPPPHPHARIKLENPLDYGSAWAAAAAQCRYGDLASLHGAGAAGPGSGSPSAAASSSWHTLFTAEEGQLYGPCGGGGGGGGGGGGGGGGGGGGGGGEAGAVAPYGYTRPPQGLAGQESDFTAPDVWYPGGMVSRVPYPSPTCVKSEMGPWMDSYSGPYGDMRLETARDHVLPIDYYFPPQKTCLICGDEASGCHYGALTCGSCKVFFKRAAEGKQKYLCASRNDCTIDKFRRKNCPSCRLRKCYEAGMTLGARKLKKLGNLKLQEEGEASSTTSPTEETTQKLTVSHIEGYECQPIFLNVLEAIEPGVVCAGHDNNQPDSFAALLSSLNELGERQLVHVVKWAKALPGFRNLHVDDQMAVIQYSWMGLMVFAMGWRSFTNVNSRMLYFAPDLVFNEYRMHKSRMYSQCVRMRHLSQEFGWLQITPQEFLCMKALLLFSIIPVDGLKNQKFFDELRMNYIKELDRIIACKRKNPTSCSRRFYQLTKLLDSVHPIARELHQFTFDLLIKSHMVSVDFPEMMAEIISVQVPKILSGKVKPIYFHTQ
Summary of the method: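 MDA-MB453 breast tumour cells stably carrying an ARE-containing MMTV promoter driving firefly luciferase, plated overnight at 37° C in charcoal-treated serum medium. DHT added (final […]) and incubated 17 hr at 37° C. Luminescence read after adding luciferase buffer; values are means of multiple tests.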

Structure (SMILES)	% CE reduction ([1]; topical 1%) [%]	Sum of WE & CE ([1]; topical 1%)	% WE reduction ([1]; topical 1%) [%]	IC50 [2] [µM]	IC50 ([2]; read-out: IC50) [µM]	% CE reduction ([1]; topical 3%) [%]	Sum of WE & CE ([1]; topical 3%)	% WE reduction ([1]; topical 3%) [%]	% CE reduction ([1]; topical 2%) [%]	Sum of WE & CE ([1]; topical 2%)	% WE reduction ([1]; topical 2%) [%]
CC[C@H](C)N1CC(C)(C)[C@@H](Oc2ccc(C#N)c(C(F)(F)F)c2)C1=O [Example 1, (3R,S)-(+)-4-(1-sec-Butyl-4,4-dimethyl-2-oxo-pyrrolidin-3-yloxy)-2-trifluoromethyl-benzonitrile]	70	125	55	0.033	–	–	–	–	–	–	–
CCCN1CC(C)(C)[C@@H](Oc2ccc(C#N)c(C(F)(F)F)c2)C1=O [Example 4A, (+)-4-(1-Propyl-4,4-dimethyl-2-oxo-pyrrolidin-3-yloxy)-2-trifluoromethyl-benzonitrile (E2)]	76	161	85	0.092	–	–	–	–	–	–	–
CC(c1ccccc1)N1CC(C)(C)C(Oc2ccc(C#N)cc2Cl)C1=O (stereo not shown) [Example 109]	64	116	52	–	0.014	–	–	–	–	–	–
CCCS(=O)(=O)N1CC(C)(C)C(Oc2ccc(C#N)c(C(F)(F)F)c2)C1=O (single isomer, unassigned; (+)) [Example 82, (+)-4-[4,4-Dimethyl-2-oxo-1-(propane-1-sulfonyl)-pyrrolidin-3-yloxy]-2-trifluoromethyl-benzonitrile]	72	129	57	0.056	–	–	–	–	–	–	–
CCCN1CC(C)(C)C(Oc2ccc(C#N)c(C(F)(F)F)c2)C1=O (stereo not shown) [Example 4, 4-(4,4-dimethyl-2-oxo-1-propyl-pyrrolidin-3-yloxy)-2-trifluoromethyl-benzonitrile]	–	–	–	0.026	–	76	166	90	–	–	–
CC1(C)CN(S(C)(=O)=O)C(=O)C1Oc1ccc(C#N)c(C(F)(F)F)c1 (stereo not shown) [Example 81, 4-(1-methanesulfonyl-4,4-dimethyl-2-oxo-pyrrolidin-3-yloxy)-2-trifluoromethyl-benzonitrile]	12	20	8	–	0.199	–	–	–	–	–	–
CCCCN1CC(C)(C)C(Oc2ccc(C#N)c(C(F)(F)F)c2)C1=O (single isomer, unassigned; (+)) [Example 20, (+)-4-(1-Butyl-4,4-dimethyl-2-oxo-pyrrolidin-3-yloxy)-2-trifluoromethyl-benzonitrile]	–	–	–	0.013	–	–	–	–	83	149	66
